ChEMBL document CHEMBL4602619, “Covalent inactivation of Mycobacterium thermoresistibile inosine-5'-monophosphate dehydrogenase (IMPDH)” (Bioorg Med Chem Lett, 2020)
The source made the active and inactive calls. The rule behind the calls is not given here.

Test system: Mycobacterium thermoresistibile
Experiment: Covalent binding affinity to Mycobacterium thermoresistibile IMPDH deltaCBS variant assessed as adduct formation at Cys341 by measuring 330 Da shift of increment in protein mass measured under denaturing conditions by ESI-MS spectral analysis

SMILES: O=P(O)(O)OC[C@H]1O[C@@H](n2cnc3c(Cl)ncnc32)[C@H](O)[C@@H]1O
- Activity: Active
